Our source for the TGI and GI50 values is PubChem BioAssay (NCI).

Among the test systems are HT29 colon; NCI/ADR-RES ovarian; K-562 leukemia; TK-10 renal; SNB-75 CNS; UO-31 renal; SF-295 CNS; COLO 205 colon; OVCAR-8 ovarian.
Holding throughout (test): NCI-60 cell line screen, 48 h

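In this assay, cells in 96-well plates receive the compound at five concentrations for 48 hours. Endpoints are linearly interpolated between the surrounding concentrations. GI50 marks 50% less growth. TGI marks complete inhibition of growth.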

As to `O=C1C=C(NCCc2cc(Br)c(O)c(Br)c2)C(=O)c2[nH]cnc21`, the TGI was 80.8 µM with HT29 colon; above 100 µM with NCI/ADR-RES ovarian; above 100 µM in the test with K-562 leukemia; above 100 µM in the test on TK-10 renal; 69.1 µM in the test on SNB-75 CNS; above 100 µM in the test on UO-31 renal. Also, the TGI in the test on SF-295 CNS, in the test with COLO 205 colon and in the test on OVCAR-8 ovarian was above 100 µM each time.

For `COc1cccc(/C=N/n2c(Cc3ccc(Cl)cc3)n[nH]c2=O)c1`, the TGI with HT29 colon is 34 µM; in the test with NCI/ADR-RES ovarian it was above 88.7 µM; in the test on K-562 leukemia, above 100 µM; with TK-10 renal, above 100 µM; in the test with SNB-75 CNS it was 25.3 µM; in the test with UO-31 renal, above 100 µM. The values for the TGI in the test with SF-295 CNS, in the test with COLO 205 colon and in the test on OVCAR-8 ovarian were 35.4 µM, above 100 µM and 36.7 µM, respectively.

On to `CCc1cc2c(oc3c4ccccc4ccc23)c(=O)[nH]1`, for which the TGI with HT29 colon, in the test on K-562 leukemia, in the test with TK-10 renal, in the test with SNB-75 CNS, in the test with UO-31 renal and in the test with SF-295 CNS was above 10 µM in each case. Also, in the test with OVCAR-8 ovarian, the TGI is above 10 µM.

Take `Cc1cnc2[nH]c(-c3cccc(Cl)c3)cc(=O)c2c1`: the TGI in the test with NCI/ADR-RES ovarian is above 100 µM; with TK-10 renal it was above 100 µM; in the test on SNB-75 CNS it was 36.2 µM; with UO-31 renal, above 100 µM; in the test with SF-295 CNS it was 1.64 µM; in the test with COLO 205 colon it was above 37.1 µM. The molecule also gave a TGI in the test with OVCAR-8 ovarian above 100 µM.

Regarding `COc1ccc(/C=C/C(c2cc(OC)c(OC)c(OC)c2)n2cncn2)cc1O` (stereo not given), the GI50 was 3.68 µM in the test with HT29 colon, 0.032 µM in the test with K-562 leukemia, 21.2 µM with TK-10 renal and 3.66 µM in the test with COLO 205 colon. Besides, the TGI with HT29 colon is 17.2 µM; in the test with K-562 leukemia, above 100 µM; with TK-10 renal, above 100 µM; in the test on COLO 205 colon it was 16.8 µM.

Regarding `CC(CN(C)C)C(=O)/C=C/c1ccc(Cl)c(Cl)c1` (stereo not given), the TGI was 79.6 µM with NCI/ADR-RES ovarian; above 100 µM in the test on K-562 leukemia; 4.63 µM in the test on TK-10 renal; 51.1 µM in the test with SNB-75 CNS; 3.22 µM in the test with UO-31 renal; 12.9 µM with SF-295 CNS. Besides, the TGI with COLO 205 colon amounted to 2.58 µM; with OVCAR-8 ovarian, 2.85 µM.

For the molecule `C/C(=N\NC(=O)N/N=C(\C)c1ccccn1)c1ccccn1`, the TGI with HT29 colon was above 100 µM; in the test on NCI/ADR-RES ovarian, 93.6 µM; in the test with SNB-75 CNS, above 100 µM; in the test on UO-31 renal it was above 100 µM; in the test on SF-295 CNS, above 100 µM; with COLO 205 colon it was above 100 µM. This molecule also returned a TGI in the test with OVCAR-8 ovarian above 100 µM.

As to `CC(=O)C(C(=O)C(C)(C)C)C(=O)C(C)(C)C`, the TGI in the test on NCI/ADR-RES ovarian, in the test with K-562 leukemia, with TK-10 renal, with SNB-75 CNS, in the test on UO-31 renal and with SF-295 CNS was above 100 µM each time. Besides, the TGI in the test with COLO 205 colon and in the test on OVCAR-8 ovarian was above 100 µM each time.

Consider `O=Cc1cc(O)c(O)c(/C=N/n2c3ccccc3c3ccccc32)c1`, for which the TGI in the test with HT29 colon is 48.1 µM; in the test with K-562 leukemia it was 26.7 µM; in the test with TK-10 renal it was 82 µM; in the test on SNB-75 CNS it was 9.76 µM; in the test with UO-31 renal it was 26.1 µM; in the test with SF-295 CNS it was 27.7 µM. Also, the TGI in the test on COLO 205 colon came to 26.3 µM; with OVCAR-8 ovarian, 18.7 µM.

`O=C1/C(=C2\SCC(=O)N2c2ccccc2)SC(=S)N1c1ccccc1`: the TGI with HT29 colon is above 100 µM; with NCI/ADR-RES ovarian, 90.7 µM; with K-562 leukemia it was above 100 µM; in the test with TK-10 renal, above 100 µM; with SF-295 CNS, 82.7 µM; in the test with COLO 205 colon, above 100 µM. For the same molecule, the TGI with OVCAR-8 ovarian is above 100 µM.

`Cc1nc2sccn2c1C(=O)OCCOCCOCCOCCOC(=O)c1c(C)nc2sccn12`: the TGI with HT29 colon, in the test on NCI/ADR-RES ovarian, in the test with K-562 leukemia, with TK-10 renal, with UO-31 renal and with SF-295 CNS was above 100 µM throughout. Further, the TGI in the test with COLO 205 colon and in the test with OVCAR-8 ovarian was above 100 µM each time.

As for `Cc1ccc(C2(c3ccc(C)c(O)c3C)CCN(C)CC2)c(C)c1O`, the TGI was above 100 µM in the test with HT29 colon; above 100 µM with NCI/ADR-RES ovarian; above 100 µM with K-562 leukemia; 74.4 µM with TK-10 renal; above 100 µM with SNB-75 CNS; above 100 µM in the test with UO-31 renal. Also, the TGI in the test on SF-295 CNS and in the test on OVCAR-8 ovarian was above 100 µM in each case.

On to `Cc1csc2n(C)c(=O)c3ccccc3[n+]12`, for which the TGI in the test on HT29 colon, in the test with NCI/ADR-RES ovarian, in the test with K-562 leukemia, in the test with TK-10 renal, with UO-31 renal and in the test with SF-295 CNS was above 100 µM each time. Also, the TGI in the test with COLO 205 colon and in the test on OVCAR-8 ovarian was above 100 µM each time.

Take `Clc1cccc(N=C/C=C/Nc2cccc(Cl)c2)c1`: the TGI with HT29 colon was 34 µM; with NCI/ADR-RES ovarian, 31.4 µM; in the test on TK-10 renal, above 100 µM; with UO-31 renal it was 34.2 µM; with SF-295 CNS, 24.4 µM; in the test with COLO 205 colon, 29.8 µM. The same molecule had a TGI in the test with OVCAR-8 ovarian of 38.9 µM.

Consider `Cc1nn(C(=O)c2ccc(Cl)cc2)c2c1C(c1ccco1)SC(N)=N2` (stereo not given), for which the TGI in the test on HT29 colon, with NCI/ADR-RES ovarian, with K-562 leukemia, with TK-10 renal, with SNB-75 CNS and in the test on SF-295 CNS was above 10 µM each time. Moreover, the TGI in the test with COLO 205 colon and in the test with OVCAR-8 ovarian was above 10 µM throughout.

On to `C/C(NC(=O)c1ccccc1)=C(/C(=O)c1ccccc1)[C@@H]1OC(C)(C)O[C@@H]1[C@H]1COC(C)(C)O1`, for which the TGI in the test on HT29 colon is 86.3 µM; in the test on NCI/ADR-RES ovarian, above 100 µM; in the test on K-562 leukemia, 52.8 µM; in the test with TK-10 renal, above 100 µM; with UO-31 renal, 30.1 µM; with SF-295 CNS it was above 100 µM. For the same molecule, the TGI in the test on COLO 205 colon is 48.9 µM; in the test with OVCAR-8 ovarian, above 100 µM.
